Laboratory results taken from patent publication US11254663B2 (BRISTOL-MYERS SQUIBB COMPANY, priority 2019, dated 2022).

Biological target: FXR (Homo sapiens (Human), UniProt Q96RI1)
Experiment: transient human FXR/Gal4-luciferase reporter assay
Assay type: cell-based
Conditions: Gal4-hFXR fusion construct, HEK293 reporter cells; response relative to 8 μM GW-4064
Description: A Gal4-hFXR fusion construct reporter system was used as the primary assay to characterize compound activity. A construct including 5 copies of the Gal4 promoter response element upstream of a firefly luciferase reporter cDNA was stably expressed in HEK293 cells. This reporter cell line was maintained in Dulbecco's Modified Eagle's medium (DMEM; Gibco) supplemented with 1% penicillin-streptomycin (P/S) solution, 500 μg/mL Zeocin and 10% charcoal/dextran-treated fetal bovine serum (cs-FBS) at 37° C. in a humidified 5% CO2 atmosphere. Another plasmid was constructed in which the human cytomegalovirus promoter in the pcDNA3.1 vector directs the expression of the cDNA encoding a fusion protein comprised of the DNA binding domain from the Gal4 transcription factor fused to the ligand binding domain from human FXR.
The day prior to transfection, the reporter cells in culture are detached from the plate with trypsin and plated into a T75 flask at a sufficient density to achieve approximately 90% confluence the next morning. The transfection reagents are prepared by separately diluting 25 μg of the pcDNA3.1-Gal4-FXR plasmid into 1.87 mL of Opti-MEM (Thermo-Fisher), and 40 μL of Lipofectamine 2000 (Thermo-Fisher) into 1.87 mL of Opti-MEM, and then adding the diluted DNA solution into the diluted Lipofectamine 2000 solution and incubating at room temperature for 15-20 minutes. The mixture is further diluted with 10 mL of a solution comprised of DMEM, 10% cs-FBS, and 1% P/S immediately prior to transferring to the cells. The maintenance culture media is aspirated from the cells and the final transfection mixture is added before the cells are incubated overnight at 37° C. in a humidified 5% CO2 atmosphere. This protocol can be scaled up, and the transiently transfected cells can be cryopreserved in an assay-ready format.
For compound testing, 100 nL of the compounds (serial dilutions in DMSO) are dispensed with an Echo acoustic dispenser (Labcyte) into the wells of a Corning/Costar clear bottom 384-well white plate. The transfected cells are harvested, counted, and diluted such that 10-25,000 cells in 25 μL are plated into each well of the 384-well compound assay plate. The compound-treated cells are incubated overnight at 37° C. in a humidified 5% CO2 atmosphere. The next morning 25 μL of Steady-Glo (Promega) are added to each well of the plate, the mixture is incubated for 15 min. with shaking, and luminescence is measured on an Envision (Perkin Elmer) plate reader.

Sequence of FXR (Q96RI1 262-486): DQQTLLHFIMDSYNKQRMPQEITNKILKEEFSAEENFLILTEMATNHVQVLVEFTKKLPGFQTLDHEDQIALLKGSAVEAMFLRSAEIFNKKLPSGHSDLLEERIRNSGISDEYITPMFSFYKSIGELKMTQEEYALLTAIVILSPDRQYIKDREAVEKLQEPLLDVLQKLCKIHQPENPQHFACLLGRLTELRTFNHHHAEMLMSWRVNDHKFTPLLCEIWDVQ

SMILES | EC50
Cc1nc2c(C)cc(-c3cccc(N(CC45CCC(c6nc(C7CC7)no6)(CC4)CC5)C(=O)C45CC(F)(C4)C5)c3)cn2n1 [Example 265, N-((4-(3-cyclopropyl-1,2,4-oxadiazol-5-yl)bicyclo[2.2.2]octan-1-yl)methyl)-N-(3-(2,8-dimethyl-[1,2,4]triazolo[1,5-a]pyridin-6-yl)phenyl)-3-fluorobicyclo[1.1.1]pentane-1-carboxamide] | 510 nM
Cc1cc(-c2cccc(N(CC34CCC(c5nc(C6CC6)no5)(CC3)CC4)C(=O)C34CC(F)(C3)C4)c2)cn2ncnc12 [Example 266, N-((4-(3-cyclopropyl-1,2,4-oxadiazol-5-yl)bicyclo[2.2.2]octan-1-yl)methyl)-3-fluoro-N-(3-(8-methyl-[1,2,4]triazolo[1,5-a]pyridin-6-yl)phenyl)bicyclo[1.1.1]pentane-1-carboxamide] | 691 nM
O=C(N(CC12CCC(c3nc(C4CC4)no3)(CC1)CC2)c1cccc(-c2ccc(NS(=O)(=O)C(F)(F)F)cc2)c1)C12CC(F)(C1)C2 [Example 267, N-((4-(3-cyclopropyl-1,2,4-oxadiazol-5-yl)bicyclo[2.2.2]octan-1-yl)methyl)-3-fluoro-N-(4′-((trifluoromethyl)sulfonamido)-[1,1′-biphenyl]-3-yl)bicyclo[1.1.1]pentane-1-carboxamide] | 46 nM
CC(C)S(=O)(=O)Nc1ccc(-c2cccc(N(CC34CCC(c5nc(C6CC6)no5)(CC3)CC4)C(=O)C34CC(F)(C3)C4)c2)cc1 [Example 268, N-((4-(3-cyclopropyl-1,2,4-oxadiazol-5-yl)bicyclo[2.2.2]octan-1-yl)methyl)-3-fluoro-N-(4′-((1-methylethyl)sulfonamido)-[1,1′-biphenyl]-3-yl)bicyclo[1.1.1]pentane-1-carboxamide] | 166 nM
O=C(N(CC12CCC(c3nc(C4CC4)no3)(CC1)CC2)c1cccc(-c2ccc(NS(=O)(=O)C3CC3)cc2)c1)C12CC(F)(C1)C2 [Example 269, N-(4′-(cyclopropanesulfonamido)-[1,1′-biphenyl]-3-yl)-N-((4-(3-cyclopropyl-1,2,4-oxadiazol-5-yl)bicyclo[2.2.2]octan-1-yl)methyl)-3-fluorobicyclo[1.1.1]pentane-1-carboxamide] | 142 nM
CS(=O)(=O)Nc1ccc(-c2cccc(N(CC34CCC(c5nc(C6CC6)no5)(CC3)CC4)C(=O)C34CC(F)(C3)C4)c2)cn1 [Example 270, N-((4-(3-cyclopropyl-1,2,4-oxadiazol-5-yl)bicyclo[2.2.2]octan-1-yl)methyl)-3-fluoro-N-(3-(6-(methylsulfonamido)pyridin-3-yl)phenyl)bicyclo[1.1.1]pentane-1-carboxamide] | 442 nM
O=C(N(CC12CCC(c3nc(C4CC4)no3)(CC1)CC2)c1cccc(-c2cnc(C3CC3)nc2)c1)C12CC(F)(C1)C2 [Example 271, N-((4-(3-cyclopropyl-1,2,4-oxadiazol-5-yl)bicyclo[2.2.2]octan-1-yl)methyl)-N-(3-(2-cyclopropylpyrimidin-5-yl)phenyl)-3-fluorobicyclo[1.1.1]pentane-1-carboxamide] | 23 nM
CS(=O)(=O)Nc1ncc(-c2cccc(N(CC34CCC(c5nc(C6CC6)no5)(CC3)CC4)C(=O)C34CC(F)(C3)C4)c2)cn1 [Example 272, N-((4-(3-cyclopropyl-1,2,4-oxadiazol-5-yl)bicyclo[2.2.2]octan-1-yl)methyl)-3-fluoro-N-(3-(2-(methylsulfonamido)pyrimidin-5-yl)phenyl)bicyclo[1.1.1]pentane-1-carboxamide] | 559 nM
COCc1ccc(-c2cccc(N(CC34CCC(c5nc(C6CC6)no5)(CC3)CC4)C(=O)C34CC(F)(C3)C4)c2)cc1 [Example 273, N-((4-(3-cyclopropyl-1,2,4-oxadiazol-5-yl)bicyclo[2.2.2]octan-1-yl)methyl)-3-fluoro-N-(4′-(methoxymethyl)-[1,1′-biphenyl]-3-yl)bicyclo[1.1.1]pentane-1-carboxamide] | 52 nM
COCc1ccc(-c2cccc(N(CC34CCC(c5nc(C6CC6)no5)(CC3)CC4)C(=O)C34CC(F)(C3)C4)c2)cn1 [Example 274, N-((4-(3-cyclopropyl-1,2,4-oxadiazol-5-yl)bicyclo[2.2.2]octan-1-yl)methyl)-3-fluoro-N-(3-(6-(methoxymethyl)pyridin-3-yl)phenyl)bicyclo[1.1.1]pentane-1-carboxamide] | 106 nM
Cc1nc2ccc(-c3cccc(N(CC45CCC(c6nc(C7CC7)no6)(CC4)CC5)C(=O)C45CC(F)(C4)C5)c3)cc2o1 [Example 275, N-((4-(3-cyclopropyl-1,2,4-oxadiazol-5-yl)bicyclo[2.2.2]octan-1-yl)methyl)-3-fluoro-N-(3-(2-methylbenzo[d]oxazol-6-yl)phenyl)bicyclo[1.1.1]pentane-1-carboxamide] | 58.7 nM
O=C(N(CC12CCC(c3nc(C4CC4)no3)(CC1)CC2)c1cccc(-c2cnc3nc(C4CC4)sc3c2)c1)C12CC(F)(C1)C2 [Example 276, N-((4-(3-cyclopropyl-1,2,4-oxadiazol-5-yl)bicyclo[2.2.2]octan-1-yl)methyl)-N-(3-(2-cyclopropylthiazolo[4,5-b]pyridin-6-yl)phenyl)-3-fluorobicyclo[1.1.1]pentane-1-carboxamide] | 77.5 nM
O=C(N(CC12CCC(c3nc(C4CC4)no3)(CC1)CC2)c1cccc(-c2ccc3ncsc3c2)c1)C12CC(F)(C1)C2 [Example 277, N-(3-(benzo[d]thiazol-6-yl)phenyl)-N-((4-(3-cyclopropyl-1,2,4-oxadiazol-5-yl)bicyclo[2.2.2]octan-1-yl)methyl)-3-fluorobicyclo[1.1.1]pentane-1-carboxamide] | 35 nM
Cc1nc2ncc(-c3cccc(N(CC45CCC(c6nc(C7CC7)no6)(CC4)CC5)C(=O)C45CC(F)(C4)C5)c3)cc2s1 [Example 278, N-((4-(3-cyclopropyl-1,2,4-oxadiazol-5-yl)bicyclo[2.2.2]octan-1-yl)methyl)-3-fluoro-N-(3-(2-methylthiazolo[4,5-b]pyridin-6-yl)phenyl)bicyclo[1.1.1]pentane-1-carboxamide] | 83 nM
N#CC1(c2ccc(-c3cccc(N(CC45CCC(c6nc(C7CC7)no6)(CC4)CC5)C(=O)C45CC(F)(C4)C5)c3)cc2)CC1 [Example 279, N-(4′-(1-cyanocyclopropyl)-[1,1′-biphenyl]-3-yl)-N-((4-(3-cyclopropyl-1,2,4-oxadiazol-5-yl)bicyclo[2.2.2]octan-1-yl)methyl)-3-fluorobicyclo[1.1.1]pentane-1-carboxamide] | 125 nM
O=C(N(CC12CCC(c3nc(C4CC4)no3)(CC1)CC2)c1cccc(-c2ccc(C(F)(F)F)nc2)c1)C12CC(F)(C1)C2 [Example 280, N-((4-(3-cyclopropyl-1,2,4-oxadiazol-5-yl)bicyclo[2.2.2]octan-1-yl)methyl)-3-fluoro-N-(3-(6-(trifluoromethyl)pyridin-3-yl)phenyl)bicyclo[1.1.1]pentane-1-carboxamide] | 308 nM
CCOc1ccc(-c2cccc(N(CC34CCC(c5nc(C6CC6)no5)(CC3)CC4)C(=O)C34CC(F)(C3)C4)c2)cn1 [Example 281, N-((4-(3-cyclopropyl-1,2,4-oxadiazol-5-yl)bicyclo[2.2.2]octan-1-yl)methyl)-N-(3-(6-ethoxypyridin-3-yl)phenyl)-3-fluorobicyclo[1.1.1]pentane-1-carboxamide] | 66 nM
